Laboratory results published in patent publication US4760072A, “Solid nedocromil sodium, useful for the removal of obstructed air pathways” (Fisons, plc, priority 1984, dated 1988).
“And” between values parts separate entries of the source, which are not always exact repeats. Identical values can stand only once. Counter-ions that a name gives are not always drawn. Values belong to the molecule of their own block, whether it stands above or below them.

Legend:
[1] = Bound water / thermogravimetric analysis; format: physicochemical
Description: Form A material containing bound water can best be identified by thermogravimetric analysis in which the temperature of the material to be tested is increased at a constant rate and the change in weight of the sample is recorded against time.
(a) Two samples of about 5 mg of nedocromil sodium were submitted to thermogravimetric analysis at a scan rate of 20° C. per minute.

[2] = Powder X-ray diffraction, crystallinity; format: physicochemical
Text: These peaks indicate that the material is crystalline.
In addition to the form A material there is a less desired form B which is of darker yellow colour, i.e. gives a yellow reading of 2.0 or more at 10% w/w total water using a Lovibond tintometer.

[3] = Particle size analysis by Joyce-Loebl disc centrifuge; format: physicochemical; conditions: four laboratory precipitations; Apex milled and micronised in a fluid energy mill
Description: By mass median diameter we mean the diameter such that half the particulate mass is in particles of lesser diameter and half in particles of greater diameter. The mass median diameter is essentially a Stokes diameter and may be determined using a Joyce Loebl sedimentation disc centrifuge either in a two layer or line start photometric mode (Bagness J and Ottaway A. Proc. Soc. Analyt. Chem. Part 4, Vol 9, 1972 pages 83-86).
Twenty grams of nedocromil sodium were mixed with 60 ml of de-ionised water and 180 ml isopropanol in a 700 ml reaction flask. The mixture was agitated with an anchor-type stirrer at 120 rpm, and heated to its boiling point at around 80° C. The flask was fitted with a water-cooled condenser to prevent escape of isopropanol vapour. The resulting solution was refluxed for about 10 minutes to ensure complete dissolution. The hot solution of nedocromil sodium was then cooled to 75° C. and then added in about 20 seconds to 190 ml of isopropanol at 8° C. The resulting slurry was stirred with the anchor agitator and cooled to 25° C. in the reaction flask. The time taken for cooling was about 45 minutes and throughout this time the crystal slurry remained as the pale yellow, free flowing form. The slurry was then filtered on a Buchner filter using terylene filter cloth, washed with about 50 ml isopropanol and dried in an oven at 60° C. to constant weight. […]

[4] = Aerosol dispersion with single stage liquid impinger; format: physicochemical
Text: The single stage liquid impinger samples the whole cloud delivered from the aerosol and separates it into two fractions by inertial impaction. The fraction of smaller particle size is less than 10 microns in aerodynamic diameter and represents material which is likely to penetrate into the deeper regions of the human airways.
In four laboratory precipitations using this method particles of mass mean diameter 2.5, 2.5, 2.8 and 2.8 microns were produced, and these gave aerosol dispersions of 26% and 23% from a 50 microliter valve using the formulation described in Example 1. The dispersion was measured with a single stage liquid impinger.

[5] = Physical stability of solid form B; format: physicochemical
[6] = Solid form produced by precipitation process; format: physicochemical
Description: Twenty grams of the nedocromil sodium were dissolved in 60 ml of deionised water and 180 ml of isopropyl alcohol by heating to reflux at 81° C. To this solution was then added a further 190 ml of isopropanol (temperature 25° C.) with agitation. The crystal slurry was then cooled in air, maintaining agitation, until a temperature of 25° C. had been reached. The crystals were then filtered on a Buchner filter, using a terylene filter cloth. The filter cake was washed with a displacement volume of isopropanol and filtered further. The cake was then dried in an oven, at atmospheric pressure and 60° C., to constant weight.
1 Kg of nedocromil sodium is dissolved in three liters of deionised water and six liters of isopropanol at 30° C., and the mixture is then heated to reflux (at 81° C.) with agitation to ensure dissolution. The resulting solution is cooled slightly to about 75° C. and then added to another 12.5 liters of isopropanol at a temperature of about -8° C., as quickly as possible. This precipitates out most of the nedocromil sodium and produces a slurry. This slurry is then stirred and cooled to 25° C. over about an hour, to precipitate out further material. The temperature of the slurry is kept at 25° C. and the slurry filtered as soon as possible to remove the mother liquor, and then dried to constant weight at 60° C. […]

[7] = Viscosity of precipitated crystal slurry; format: physicochemical; conditions: 140 ml isopropanol at 15° C. added; cooled to 22° C. in 30 minutes
Description: Twenty grams of crude nedocromil sodium were mixed with 60 ml of deionised water and 180 ml of isopropyl alcohol in a 700 ml reaction flask. The mixture was agitated with an anchor-type agitator at 120 rpm and heated to boiling point at about 80° C. The solution was refluxed for 10 minutes and then cooled to 75° C. To it was then added a further 140 ml isopropanol at 15° C. […] The resulting slurry was then agitated as in Example 4 and cooled in an ice/salt/isopropanol bath to 22° C. in 30 minutes. […] This slurry was filtered, washed and dried as in Example 4.

[8] = 20° C.; cited from earlier work
[9] = Air classification of ground nedocromil sodium; format: physicochemical
Text: It is further known to be desirable to make inhalation pharmaceuticals in the form of fine particles. These fine particles are conventionally made by grinding or milling larger sized particles of the pharmaceutical. Generally grinding and milling machines are extremely efficient and reduce the particle size of the material as far as they are capable in a single pass. Indeed the mass median diameter of product material can increase after a second pass through the grinder because some of the finest particles are lost to the system. We have also attempted to produce a material of very fine particle size by air classification of ground nedocromil sodium.

Compound: FC(F)(Cl)Cl [Propellant 12, dichlorodifluoromethane]
vapour pressure (absolute) [8]: about 570 k Pa

Compound: CCCc1c2oc(C(=O)O)cc(=O)c2cc2c(=O)cc(C(=O)O)n(CC)c12 [nedocromil sodium, disodium salt of 9-ethyl-6,9-dihydro-4,6-dioxo-10-propyl-4H-pyrano[3,2-g]-quinoline-2,8-dicarboxylic acid]
dispersion of aerosol units, relative to larger mass median diameter ([4]; mass median diameter less than 4 microns vs exactly analogous units of larger mass median diameter): greater dispersion than exactly analogous units containing nedocromil sodium of larger mass median diameter
mean particle size after air classification [9]: larger mean particle size than the starting material

Compound: FC(F)(Cl)C(F)(F)Cl [Propellant 114, 1,2-dichlorotetrafluoroethane]
vapour pressure (absolute) [8]: about 180 k Pa

The next lines start with results.

thermogravimetric trace (in words) [1]: discontinuous
crystallinity by powder X-ray diffraction [2]: crystalline
Compound: CCCc1c2oc(C(=O)O)cc(=O)c2cc2c(=O)cc(C(=O)O)n(CC)c12 [Form A]
removability of bound water on intensive drying ([1]; atmospheric pressure): cannot readily be removed by intensive drying at atmospheric pressure without destroying the compound

aerosol dispersion ([4]; 50 microliter valve, formulation described in Example 1): 26% and 23%
Compound: CCCc1c2oc(C(=O)O)cc(=O)c2cc2c(=O)cc(C(=O)O)n(CC)c12 [Example 4]
mass mean diameter [3]: 2.5 microns and 2.8 microns

bound water (in words) [1]: no bound water
thermogravimetric trace (in words) [1]: essentially continuous trace
crystallinity by powder X-ray diffraction [2]: amorphous
Compound: CCCc1c2oc(C(=O)O)cc(=O)c2cc2c(=O)cc(C(=O)O)n(CC)c12 [Form B]
coalescence on change to form A [5]: can coalesce to produce hard and intractable lumps of particle size larger than the original material
spontaneous change to form A [5]: can, but does not necessarily,change spontaneously (sometimes after a very considerable time) to form A

bound water (in words) [1]: no tightly bound water
form of nedocromil sodium produced [6]: form B
viscosity of slurry [7]: about 20,000 centipoise
Compound: CCCc1c2oc(C(=O)O)cc(=O)c2cc2c(=O)cc(C(=O)O)n(CC)c12 [Example 6]
